Experimental data taken from patent US20080312333A1, “Agent for Preventing/Ameliorating Life Style-Related Diseases Containing Turmeric Essential Oil Component” (Kaneka Corporation, priority 2004, published 2008).

Target: T1, PPARγ (Homo sapiens, UniProt P37231)
T1 construct: GAL4 (yeast transcription factor, amino acids 1-147); expressed in transfected cells; host or cells: CV-1 cells (African green monkey kidney)
T1 sequence (P37231 204-505): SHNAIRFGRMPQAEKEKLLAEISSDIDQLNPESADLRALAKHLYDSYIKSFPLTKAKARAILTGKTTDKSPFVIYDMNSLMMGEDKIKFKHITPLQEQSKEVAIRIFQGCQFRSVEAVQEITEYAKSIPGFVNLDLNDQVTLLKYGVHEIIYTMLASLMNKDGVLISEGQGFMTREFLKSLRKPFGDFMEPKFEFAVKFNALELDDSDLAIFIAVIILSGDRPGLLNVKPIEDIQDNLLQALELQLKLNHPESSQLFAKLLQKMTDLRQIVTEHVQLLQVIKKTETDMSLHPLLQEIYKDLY
Assay: PPARγ ligand activity, GAL4-PPARγ ligand binding site luciferase reporter in CV-1 cells
Assay type: cell-based
Settings: for PPARγ ligand activity: ratio to no treatment control (1.00), mean ± standard error, n = 3
Method: CV-1 cells (male African green monkey kidney-derived cultured cells) were seeded onto a 96-well culture plate (6×10^3 cells/well) and cultured under conditions of 37° C. and 5% CO2 for 24 hours. The medium used was DMEM (Dulbecco's modified Eagle medium; GIBCO) supplemented with 10% FBS (fetal bovine serum), 10 ml/L of a solution of penicillin and streptomycin (5,000 IU/ml and 5,000 μg/ml, respectively; GIBCO) and 37 mg/L of ascorbic acid (Wako Pure Chemical Industries, Ltd.). […] Each sample was dissolved in dimethyl sulfoxide (DMSO) and the solution, or DMSO used in a no treatment control group, was added to the medium to each concentration given in Table 4. Cells were washed with phosphate-buffered saline (PBS+) containing Ca and Mg, then luclite (PerkinElmer), a luciferase chemiluminescence reagent, was added, and the luciferase-due chemiluminescence intensity was measured using a TopCount microplate scintillation/luminescence counter (PerkinElmer).

PPARγ ligand activity (addition level 2 μg/ml): 1.51 ± 0.14
PPARγ ligand activity (addition level 5 μg/ml): 2.33 ± 0.59
PPARγ ligand activity (in words) (summary of Table 4): found to have PPARγ ligand activity
SMILES: CC(C)=CC(=O)C[C@H](C)c1ccc(C)cc1 [ar-turmerone]
